Where two headings read alike, the source gives them in different places.
Assays:
[1] = tested on: SARS-CoV-2-NLuc; assay: microbe, parasite or virus in culture; assay type: cell-based, SARS Coronavirus 2
[2] = target: recombinant SARS-CoV-2 Main protease (Mpro) (Severe acute respiratory syndrome coronavirus 2 (2019-nCoV) (SARS-CoV-2), UniProt P0DTD1); assay: Cov Mpro Biochemical IC50 Assay; conditions: recombinant SARS-CoV-2 Mpro, fluorogenic peptide substrate; read-out: MPro IC50
[3] = Severe acute respiratory syndrome coronavirus, 48 h, read-out: MPro EC50
[4] = Severe acute respiratory syndrome coronavirus, 48 h; read-out: MPro EC50

Row | SMILES | EC50 [1, 3] | IC50 [2] | EC50 [1, 4]
1 | N#Cc1ccc(OC(F)F)cc1-c1ccc2c(=O)n(-c3cncc4ccccc34)c(=O)[nH]c2c1 [Example 326] | 0.106 µM | 0.0425 µM | –
2 | O=c1[nH]c2cc(-c3c(Cl)cccc3-c3ccc4c(c3)CCS(=O)(=O)N4)ccc2c(=O)n1-c1cncc2ccccc12 [Example 327] | 0.0963 µM | 0.0133 µM | –
3 | N#Cc1cc(-c2cccc(Cl)c2-c2ccc3c(=O)n(-c4cncc5ccccc45)c(=O)[nH]c3c2)ccn1 [Example 328] | 0.0459 µM | 0.0154 µM | –
4 | O=c1[nH]c2cc(-c3c(Cl)cccc3-c3ccncc3)ccc2c(=O)n1-c1cncc2ccccc12 [Example 329] | 0.0223 µM | 0.00977 µM | –
5 | O=c1[nH]c2cc(-c3cc(OC(F)F)ccc3Cl)ccc2c(=O)n1-c1cncc2ccccc12 [Example 330] | 0.212 µM | 0.326 µM | –
6 | Cc1cc(-c2cccc(Cl)c2-c2ccc3c(=O)n(-c4cncc5ccccc45)c(=O)[nH]c3c2)ccn1 [Example 331] | 0.017 µM | 0.0104 µM | –
7 | O=c1[nH]c2cc(-c3c(Cl)cccc3-c3ccncc3F)ccc2c(=O)n1-c1cncc2ccccc12 [Example 332] | 0.039 µM | 0.0153 µM | –
8 | COc1cnc(C#N)c(-c2ccc3c(=O)n(-c4cncc5ccccc45)c(=O)[nH]c3c2)c1 [Example 333] | 0.765 µM | 0.149 µM | –
9 | O=c1[nH]c2cc(-c3c(Cl)cccc3-c3ccnc(C(F)(F)F)c3)ccc2c(=O)n1-c1cncc2ccccc12 [Example 334] | 0.0819 µM | 0.0786 µM | –
10 | COc1cc(-c2ccc3c(=O)n(-c4cncc5ccccc45)c(=O)[nH]c3c2)c(C#N)cn1 [Example 335] | 0.991 µM | 0.29 µM | –
11 | O=c1[nH]c2cc(-c3ccccc3Cl)sc2c(=O)n1-c1cncc2sccc12 [Example 336] | 0.00702 µM | 0.00468 µM | –
12 | O=c1[nH]c2cc(-c3ccccc3Cl)sc2c(=O)n1-c1cncc2ccc(N3CCn4c(nnc4C(F)(F)F)C3)cc12 [Example 337] | 0.17 µM | < 0.00268 µM | –
13 | Cc1ccc(Cl)c(-c2cc3[nH]c(=O)n(-c4cncc5ccccc45)c(=O)c3s2)c1 [Example 338] | 0.0376 µM | 0.0138 µM | –
14 | Cc1ccc(-c2cc3[nH]c(=O)n(-c4cncc5ccccc45)c(=O)c3s2)c(Cl)c1 [Example 339] | 0.0482 µM | 0.0148 µM | –
15 | COc1cc(-c2cc3[nH]c(=O)n(-c4cncc5ccccc45)c(=O)c3s2)c(Cl)cc1F [Example 340, 6-(2-chloro-4-fluoro-5-methoxy-phenyl)-3-(4-isoquinolyl)-1H-thieno[3,2-d]pyrimidine-2,4-dione] | 0.00539 µM | 0.00523 µM | –
16 | COc1cc(-c2cc3[nH]c(=O)n(-c4cncc5ccccc45)c(=O)c3s2)c(Cl)cc1C [Example 341] | 0.00462 µM | 0.00544 µM | –
17 | COc1cc(-c2cc3[nH]c(=O)n(-c4cncc5ccccc45)c(=O)c3s2)c(Cl)cc1Cl [Example 342] | 0.00676 µM | 0.00449 µM | –
18 | COc1cc(Cl)c(-c2cc3[nH]c(=O)n(-c4cncc5ccccc45)c(=O)c3s2)cc1OC [Example 343] | 0.00779 µM | 0.00402 µM | –
19 | O=c1[nH]c2cc(-c3cc(OC(F)(F)F)ccc3Cl)sc2c(=O)n1-c1cncc2ccccc12 [Example 344] | 0.374 µM | 0.11 µM | –
20 | CCOc1ccc(Cl)c(-c2cc3[nH]c(=O)n(-c4cncc5ccccc45)c(=O)c3s2)c1 [Example 345] | 0.0618 µM | 0.0147 µM | –

Row | SMILES | EC50 [1, 3] | IC50 [2] | EC50 [1, 4]
21 | CC(C)Oc1ccc(Cl)c(-c2cc3[nH]c(=O)n(-c4cncc5ccccc45)c(=O)c3s2)c1 [Example 346] | 0.239 µM | 0.0735 µM | –
22 | O=c1[nH]c2cc(-c3cc4c(cc3Cl)OCO4)sc2c(=O)n1-c1cncc2ccccc12 [Example 347] | 0.642 µM | 0.441 µM | –
23 | O=c1[nH]c2cc(-c3cc4c(cc3Cl)OC(F)(F)O4)sc2c(=O)n1-c1cncc2ccccc12 [Example 348] | 8.93 µM | 4.76 µM | –
24 | COc1ccc(C)c(-c2cc3[nH]c(=O)n(-c4cncc5ccccc45)c(=O)c3s2)c1 [Example 349] | 0.03 µM | 0.00723 µM | –
25 | Cc1cc(-c2cc3[nH]c(=O)n(-c4cncc5ccccc45)c(=O)c3s2)c(Cl)cc1F [Example 350] | 0.0492 µM | 0.0172 µM | –
26 | O=c1[nH]c2cc(-c3cc(C4CC4)ccc3Cl)sc2c(=O)n1-c1cncc2ccccc12 [Example 351] | 0.0692 µM | 0.0196 µM | –
27 | Cc1ncc(-c2cccc(Cl)c2-c2ccc3c(=O)n(-c4cncc5ccccc45)c(=O)[nH]c3c2)n1C [Example 352] | 0.12 µM | 0.0418 µM | –
28 | O=c1[nH]c2cc(-c3c(Cl)cccc3-c3ccc4c(c3)OC(F)(F)O4)sc2c(=O)n1-c1cncc2ccccc12 [Example 353] | 0.0315 µM | 0.143 µM | –
29 | O=c1[nH]c2cc(-c3c(Cl)cccc3-c3ccc4c(c3)OCCO4)sc2c(=O)n1-c1cncc2ccccc12 [Example 354] | 0.0128 µM | 0.0456 µM | –
30 | Cc1noc(C)c1-c1cccc(Cl)c1-c1cc2[nH]c(=O)n(-c3cncc4ccccc34)c(=O)c2s1 [Example 355] | 0.0229 µM | 0.00964 µM | –
31 | O=c1[nH]c2cc(-c3c(Cl)cccc3-c3ccc4c(c3)OCO4)ccc2c(=O)n1-c1cncc2ccccc12 [Example 356] | 0.0522 µM | 0.13 µM | –
32 | O=c1[nH]c2cc(-c3c(Cl)cccc3-c3ccc4c(c3)OC(F)(F)O4)ccc2c(=O)n1-c1cncc2ccccc12 [Example 357] | 0.0681 µM | 0.373 µM | –
33 | O=c1[nH]c2cc(-c3c(Cl)cccc3-c3ccc4c(c3)OCCO4)ccc2c(=O)n1-c1cncc2ccccc12 [Example 358] | 0.113 µM | 0.177 µM | –
34 | Cc1nc2cc(-c3cccc(Cl)c3-c3ccc4c(=O)n(-c5cncc6ccccc56)c(=O)[nH]c4c3)ccc2o1 [Example 359] | 0.0914 µM | 0.107 µM | –
35 | O=C1NCc2cc(-c3cccc(Cl)c3-c3ccc4c(=O)n(-c5cncc6ccccc56)c(=O)[nH]c4c3)ccc21 [Example 360] | 0.0421 µM | 0.0194 µM | –
36 | O=c1[nH]c2cc(-c3c(Cl)cccc3-c3ccc4oncc4c3)ccc2c(=O)n1-c1cncc2ccccc12 [Example 361] | 0.178 µM | 0.0389 µM | –
37 | Cc1noc(C)c1-c1cc2[nH]c(=O)n(-c3cncc4ccccc34)c(=O)c2s1 [Example 362] | 0.201 µM | 0.0356 µM | –
38 | Cc1nn(C)cc1-c1cc2[nH]c(=O)n(-c3cncc4ccccc34)c(=O)c2s1 [Example 363] | 0.785 µM | 0.129 µM | –
39 | COc1cnc(Cl)c(-c2cc3[nH]c(=O)n(-c4cncc5ccccc45)c(=O)c3s2)c1 [Example 364, 6-(2-chloro-5-methoxypyridin-3-yl)-3-(isoquinolin-4-yl)thieno[3,2-d]pyrimidine-2,4(1H,3H)-dione] | 0.0182 µM | 0.00531 µM | –
40 | COc1cc(-c2cc3[nH]c(=O)n(-c4cncc5ccccc45)c(=O)c3s2)c(Cl)cn1 [Example 365] | 0.343 µM | 0.1 µM | –

Row | SMILES | EC50 [1, 3] | IC50 [2] | EC50 [1, 4]
41 | Cc1nn(C)cc1-c1cc2[nH]c(=O)n(-c3cncc(C4CC4)c3)c(=O)c2s1 [Example 366] | – | 36.8 µM | 32.2 µM
42 | COc1ccc(Cl)c(-c2cc3[nH]c(=O)n(-c4cncc(C5CC5)c4)c(=O)c3s2)c1 [Example 367] | – | 0.0089 µM | 0.0211 µM
43 | Cc1noc(C)c1-c1cc2[nH]c(=O)n(-c3cncc(C4CC4)c3)c(=O)c2s1 [Example 368] | – | 0.411 µM | 1.92 µM
44 | COc1cnc(Cl)c(-c2cc3[nH]c(=O)n(-c4cncc(C5CC5)c4)c(=O)c3s2)c1 [Example 369] | – | 0.00923 µM | 0.111 µM
45 | O=c1[nH]c2cc(-c3c(Cl)cccc3Cl)sc2c(=O)n1-c1cncc(C2CC2)c1 [Example 370, 3-(5-cyclopropylpyridin-3-yl)-6-(2,6-dichlorophenyl)thieno[3,2-d]pyrimidine-2,4(1H,3H)-dione] | – | 0.273 µM | 0.388 µM
46 | COc1ccc(Cl)c(-c2ccc3c(=O)n(-c4cncc5ccc(F)cc45)c(=O)[nH]c3c2)c1 [Example 371] | – | 0.0559 µM | 0.108 µM
47 | Cc1cncc(-n2c(=O)[nH]c3cc(-c4ccccc4Cl)sc3c2=O)c1OCC(F)(F)F [Example 372] | 0.176 µM | 0.0778 µM | –
48 | COc1ccc(Cl)c(-c2cc3[nH]c(=O)n(-c4cncc(C)c4OCC(F)(F)F)c(=O)c3s2)c1 [Example 373] | – | 0.0146 µM | 0.0469 µM
49 | Cc1cncc(-n2c(=O)[nH]c3cc(-c4ccccc4Cl)ccc3c2=O)c1OCC(F)(F)F [Example 374] | 1.24 µM | 1.13 µM | –
50 | COc1ccc(Cl)c(-c2ccc3c(=O)n(-c4cncc(C)c4OCC(F)(F)F)c(=O)[nH]c3c2)c1 [Example 375] | – | 0.345 µM | 0.632 µM
51 | CC(C)c1cncc(-n2c(=O)[nH]c3cc(-c4ccccc4Cl)sc3c2=O)c1 [Example 376] | 47.3 µM | 43.3 µM | –
52 | Cc1c(C2CC2)cncc1-n1c(=O)[nH]c2cc(-c3ccccc3Cl)sc2c1=O [Example 377] | 6.23 µM | > 50 µM | –
53 | COc1cncc(-n2c(=O)[nH]c3cc(-c4ccccc4Cl)sc3c2=O)c1 [Example 378] | – | 0.304 µM | 0.359 µM
54 | O=c1[nH]c2cc(-c3ccccc3Cl)sc2c(=O)n1-c1cncc(C2CCC2)c1 [Example 379] | – | 0.436 µM | 0.186 µM
55 | CN(C)c1cncc(-n2c(=O)[nH]c3cc(-c4ccccc4Cl)sc3c2=O)c1 [Example 380] | 0.77 µM | 5.95 µM | –
56 | O=c1[nH]c2cc(-c3ccccc3Cl)sc2c(=O)n1-c1cncc(OCC(F)(F)F)c1 [Example 381] | 0.145 µM | 5.07 µM | –
57 | CC(C)Oc1cncc(-n2c(=O)[nH]c3cc(-c4ccccc4Cl)sc3c2=O)c1 [Example 382] | 0.208 µM | 4.6 µM | –
58 | CNC(=O)[C@H]1C[C@@H]1c1cncc(-n2c(=O)[nH]c3cc(-c4ccccc4Cl)sc3c2=O)c1 [Example 383] | 0.286 µM | 0.00523 µM | –

Reference: patent US20240116946A1 (Gilead Sciences, Inc., priority 2022, published 2024)
